Data: patent publication US8536209B2, “Aminotriazole derivatives as ALX agonists” (Actelion Pharmaceuticals Ltd., priority 2007, dated 2013)

Target: T1, recombinant human ALX receptor (Homo sapiens, UniProt P25090)
T1 construct: expressed in transfected cells; host or cells: HEK293 (HEK293-hALXR-Gα16)
T1 sequence (P25090 1-351): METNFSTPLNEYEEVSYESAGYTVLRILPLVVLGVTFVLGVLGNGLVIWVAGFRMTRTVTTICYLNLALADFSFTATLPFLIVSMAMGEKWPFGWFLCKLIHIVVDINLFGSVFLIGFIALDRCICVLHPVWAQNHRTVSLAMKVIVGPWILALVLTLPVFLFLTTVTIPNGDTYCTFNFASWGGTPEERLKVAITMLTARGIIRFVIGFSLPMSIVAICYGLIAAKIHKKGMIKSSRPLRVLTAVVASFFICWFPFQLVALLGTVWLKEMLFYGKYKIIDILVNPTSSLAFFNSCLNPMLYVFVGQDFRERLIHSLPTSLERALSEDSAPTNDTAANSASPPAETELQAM
Test: Intracellular calcium measurements (FLIPR), ALX receptor agonistic activity
Assay type: cell-based
Conditions: HEK293-hALXR-Gα16 cells, normalized to WKYMVm 10 nM
Procedure: The ALX receptor agonistic activity of the compounds of formula (I) is determined in accordance with the following experimental method.
Intracellular Calcium Measurements:
Cells expressing recombinant human ALX receptor and the G-protein Gα16 (HEK293-hALXR-Gα16) were grown to 80% confluency in Growing Medium (GM). Cells were detached from culture dishes with a cell dissociation buffer (Invitrogen, 13151-014), and collected by centrifugation at 1,000 rpm at RT for 5 min in Assay Buffer (AB) (equal parts of Hank's BSS (Gibco, 14065-049) and DMEM without Phemol Red (Gibco, 11880-028)). After 60 min incubation at 37° C. under 5% CO2 in AB supplemented with 1 μM Fluo-4 (AM) (TEFLABS.COM, 0152), 0.04% (v/v) Pluronic F-127 (Molecular Probes, P6866), and 20 mM HEPES (Gibco, 15630-056), the cells were washed and resuspended in AB. They were then seeded onto 384-well FLIPR assay plates (Greiner, 781091) at 50′000 cells in 70 μl per well and sedimented by centrifugation at 1′000 rpm for 1 min. Stock solutions of test compounds were made up at a concentration of 10 mM in DMSO, and serially diluted in AB to concentrations required for activation dose response curves. WKYMVm (Phoenix Peptides) was used as a reference agonist. A FLIPR^384 instrument (Molecular Devices) was operated according to the manufacturer's standard instructions, adding 4 μl of test compound dissolved at 10 mM in DMSO and diluted prior to the experiment in assay buffer to obtain the desired final concentration. Changes in fluorescence were monitored before and after the addition of test compounds at lex=488 nm and lem=540 nm. Emission peak values above base level after compounds addition were exported after base line subtraction. Values were normalized to high-level control (WKYMVm compound, 10 nM final concentration) after subtraction of the base line value (AB addition). The program XLlfit 3.0 (IDBS) was used to fit the data to a single site dose response curve of the equation (A+((B−A)/(1+((C/x)^D)))) and to calculate the EC50 values.

| EC50 [nM] | Compound |
| --- | --- |
| 1.9 | CC(=O)c1ccc(Cn2ncc(NC(=O)c3ncoc3-c3cccc(N(C)C)c3)n2)o1 [Example 38, 5-(3-Dimethylamino-phenyl)-oxazole-4-carboxylic acid [2-(5-acetyl-furan-2-ylmethyl)-2H-[1,2,3]triazol-4-yl]-amide] |
| 24 | CS(=O)(=O)c1ccc(Cn2ncc(NC(=O)c3ncoc3-c3ccccc3)n2)o1 [Example 37, 5-Phenyl-oxazole-4-carboxylic acid [2-(5-methanesulfonyl-furan-2-ylmethyl)-2H-[1,2,3]triazol-4-yl]-amide] |
| 2.1 | COCCc1cccc(-c2ocnc2C(=O)Nc2cnn(Cc3ccc(C(C)=O)o3)n2)c1 [Example 42, 5-[3-(2-Methoxy-ethyl)-phenyl]-oxazole-4-carboxylic acid [2-(5-acetyl-furan-2-ylmethyl)-2H-[1,2,3]triazol-4-yl]-amide] |
| 8.1 | CC(=O)c1ncc(Cn2ncc(NC(=O)c3nc(C)oc3-c3cccc(F)c3)n2)o1 [Example 99, 5-(3-Fluoro-phenyl)-2-methyl-oxazole-4-carboxylic acid [2-(2-acetyl-oxazol-5-ylmethyl)-2H-[1,2,3]triazol-4-yl]-amide] |
| 1.2 | CC(=O)c1ccc(Cn2ncc(NC(=O)/C=C/c3cccc(OC(F)(F)F)c3)n2)o1 [Example 8, (E)-N-[2-(5-Acetyl-furan-2-ylmethyl)-2H-[1,2,3]triazol-4-yl]-3-(3-trifluoromethoxy-phenyl)-acrylamide] |
| 23 | CC(=O)c1cnc(Cn2ncc(NC(=O)OCc3ccccc3Cl)n2)s1 [Example 71, [2-(5-Acetyl-thiazol-2-ylmethyl)-2H-[1,2,3]triazol-4-yl]-carbamic acid 2-chloro-benzyl ester] |
| 1.8 | CC(=O)c1ccc(Cn2ncc(NC(=O)c3ncoc3-c3ccccc3)n2)o1 [Example 1, 5-Phenyl-oxazole-4-carboxylic acid [2-(5-acetyl-furan-2-ylmethyl)-2H-[1,2,3]triazol-4-yl]-amide] |
| 203 | CC(=O)c1cccc(Cn2ncc(NC(=O)c3ncoc3-c3ccccc3)n2)n1 [Example 43, 5-Phenyl-oxazole-4-carboxylic acid [2-(6-acetyl-pyridin-2-ylmethyl)-2H-[1,2,3]triazol-4-yl]-amide] |
| 2 | CC(=O)c1ccc(Cn2ncc(NC(=O)c3nc(C)oc3-c3cccc(C(F)(F)F)c3)n2)o1 [Example 26, 2-Methyl-5-(3-trifluoromethyl-phenyl)-oxazole-4-carboxylic acid [2-(5-acetyl-furan-2-ylmethyl)-2H-[1,2,3]triazol-4-yl]-amide] |
| 8.5 | CC(=O)c1cccc(Cn2ncc(NC(=O)OCc3ccccc3Cl)n2)c1 [Example 35, [2-(3-Acetyl-benzyl)-2H-[1,2,3]triazol-4-yl]-carbamic acid 2-chloro-benzyl ester] |
| 1.3 | CC(=O)c1csc(Cn2ncc(NC(=O)OCc3ccccc3Cl)n2)n1 [Example 40, [2-(4-Acetyl-thiazol-2-ylmethyl)-2H-[1,2,3]triazol-4-yl]-carbamic acid 2-chloro-benzyl ester] |
| 57 | CC(=O)c1cc(Cn2ncc(NC(=O)c3ncoc3-c3ccccc3)n2)cs1 [Example 49, 5-Phenyl-oxazole-4-carboxylic acid [2-(5-acetyl-thiophen-3-ylmethyl)-2H-[1,2,3]triazol-4-yl]-amide] |
| 36 | CC(=O)c1ccc(Cn2ncc(NC(=O)c3ncoc3-c3cccc(C(F)(F)F)n3)n2)o1 [Example 105, 5-(6-Trifluoromethyl-pyridin-2-yl)-oxazole-4-carboxylic acid [2-(5-acetyl-furan-2-ylmethyl)-2H-[1,2,3]triazol-4-yl]-amide] |
| 1.6 | CC(=O)CCCCn1ncc(NC(=O)c2ncoc2-c2ccccc2)n1 [Example 5, 5-Phenyl-oxazole-4-carboxylic acid [2-(5-oxo-hexyl)-2H-[1,2,3]triazol-4-yl]-amide] |
| 4.9 | CC(F)(F)CCCCn1ncc(NC(=O)c2ncoc2-c2ccccc2)n1 [Example 36, 5-Phenyl-oxazole-4-carboxylic acid [2-(5,5-difluoro-hexyl)-2H-[1,2,3]triazol-4-yl]-amide] |
| 0.7 | CC(=O)c1coc(Cn2ncc(NC(=O)c3ncoc3-c3ccccc3)n2)n1 [Example 91, 5-Phenyl-oxazole-4-carboxylic acid [2-(4-acetyl-oxazol-2-ylmethyl)-2H-[1,2,3]triazol-4-yl]-amide] |
| 1.4 | CC(=O)c1nc(Cn2ncc(NC(=O)OCc3ccccc3Cl)n2)co1 [Example 104, [2-(2-Acetyl-oxazol-4-ylmethyl)-2H-[1,2,3]triazol-4-yl]-carbamic acid 2-chloro-benzyl ester] |
| 0.8 | CC(=O)c1ccc(Cn2ncc(NC(=O)c3nc(C4CC4)oc3-c3ccccc3)n2)o1 [Example 30, 2-Cyclopropyl-5-phenyl-oxazole-4-carboxylic acid [2-(5-acetyl-furan-2-ylmethyl)-2H-[1,2,3]triazol-4-yl]-amide] |
| 53 | COc1cc(-c2ocnc2C(=O)Nc2cnn(Cc3ccc(C(C)=O)o3)n2)ccc1C [Example 21, 5-(3-Methoxy-4-methyl-phenyl)-oxazole-4-carboxylic acid [2-(5-acetyl-furan-2-ylmethyl)-2H-[1,2,3]triazol-4-yl]-amide] |
| 2.8 | CC(=O)c1ccc(Cn2ncc(NC(=O)c3ncoc3-c3ccccc3)n2)s1 [Example 33, 5-Phenyl-oxazole-4-carboxylic acid [2-(5-acetyl-thiophen-2-ylmethyl)-2H-[1,2,3]triazol-4-yl]-amide] |
| 5.2 | COCCc1nc(C(=O)Nc2cnn(Cc3ccc(C(C)=O)o3)n2)c(-c2ccccc2)o1 [Example 93, 2-(2-Methoxy-ethyl)-5-phenyl-oxazole-4-carboxylic acid [2-(5-acetyl-furan-2-ylmethyl)-2H-[1,2,3]triazol-4-yl]-amide] |
| 21 | CC(=O)c1ccnc(Cn2ncc(NC(=O)OCc3ccccc3Cl)n2)c1 [Example 41, [2-(4-Acetyl-pyridin-2-ylmethyl)-2H-[1,2,3]triazol-4-yl]-carbamic acid 2-chloro-benzyl ester] |
| 98 | CC(=O)c1ccc(Cn2ncc(NC(=O)c3nc(C)sc3-c3cccc(C)c3)n2)o1 [Example 50, 2-Methyl-5-m-tolyl-thiazole-4-carboxylic acid [2-(5-acetyl-furan-2-ylmethyl)-2H-[1,2,3]triazol-4-yl]-amide] |
